Results reported in patent US9326513B2, “Fungicidal compositions” (Syngenta Participations AG, priority 2011, dated 2016).

Key:
Assay type in all cases: in vivo
Settings in all cases: foliar, compared to untreated control leaf disks, read-out: disease control
Pyrenophora teres = Pyrenophora teres / barley / leaf disc preventative (net blotch)
Excerpt: Pyrenophora teres/Barley/Leaf Disc Preventative (Net Blotch) Barley leaf segments cv. Hasso were placed on agar in a multiwell plate (24-well format) and sprayed with the formulated test compound diluted in water. The leaf segments were inoculated with a spore suspension of the fungus 2 days after application.

[1] = tested on: Puccinia recondita f. sp. tritici; assay: Puccinia recondita f. sp. tritici / wheat / leaf disc curative (brown rust)
Method: Puccinia recondita f. sp. tritici/Wheat/Leaf Disc Curative (Brown Rust) Wheat leaf segments cv. Kanzler are placed on agar in multiwell plates (24-well format). The leaf segments are inoculated with a spore suspension of the fungus. Plates were stored in darkness at 19° C. and 75% rh. The formulated test compound diluted in water was applied 1 day after inoculation.

[2] = tested on: Puccinia recondita f. sp. tritici; assay: Puccinia recondita f. sp. tritici / wheat / leaf disc preventative (brown rust)
Excerpt: Puccinia recondita f. sp. tritici/Wheat/Leaf Disc Preventative (Brown Rust) Wheat leaf segments cv. Kanzler were placed on agar in multiwell plates (24-well format) and sprayed with the formulated test compound diluted in water. The leaf disks were inoculated with a spore suspension of the fungus 1 day after application.

[3] = tested on: Blumeria graminis f. sp. tritici (Erysiphe graminis f. sp. tritici); assay: Blumeria graminis f. sp. tritici / wheat / leaf disc preventative (powdery mildew on wheat)
Procedure, shortened: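 Wheat leaf segments (cv. Kanzler) on agar were sprayed with formulated compound in water, inoculated with powdery mildew 1 day later, and kept at 20° C, 60% rh (24 h dark, then 12 h light/12 h dark). Percent disease control versus untreated scored 6-8 days after application; tested at 200 ppm.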

Measured: pest or weed control at 200 ppm

CCC(Oc1ccc(/N=C/N(C)C(C)C)c(C)n1)c1cc(C)cc(C)c1 (stereo not drawn) [Q.361]
≥ 50%: all assays above

CCC(C)Oc1nc(C)c(/N=C/N(C)CC)cc1Br (stereo not drawn) [Q.389]
≥ 50%: all assays above

CCN(C)/C=N/c1cc(Br)c(OCc2ccc(Cl)cc2)nc1C [Q.097]
≥ 50%: all assays above

C=C(C)c1nc(OCc2ccccc2C)c(Br)cc1/N=C/N(C)CC [Q.400]
≥ 50%: all assays above

CCN(C)/C=N/c1cc(Br)c(OCc2ccccc2C(F)F)nc1C [Q.289]
≥ 50%: all assays above

C=C(C)CCCOc1nc(C)c(/N=C/N(C)CC)cc1Br [Q.120]
≥ 50%: all assays above

CCCc1cccc(COc2nc(C)c(/N=C/N(C)CC)cc2Br)c1 [Q.346]
≥ 50%: all assays above

CCN(C)/C=N/c1cc(Br)c(OC2CCc3cc(F)ccc3C2)nc1C (stereo not drawn) [Q.025]
≥ 50%: all assays above

CCN(C)/C=N/c1cc(Br)c(OC2CCC(C)CC2)nc1C (stereo not drawn) [Q.141]
≥ 50%: all assays above

CCN(C)/C=N/c1cc(Br)c(OC(C)c2cccc(CCc3ccccc3)c2)nc1C (stereo not drawn) [Q.329]
≥ 50%: all assays above

CCN(C)/C=N/c1cc(Br)c(OC2Cc3ccc(C#N)cc3C2)nc1C (stereo not drawn) [Q.376]
≥ 50%: all assays above

CCN(C)/C=N/c1cc(Br)c(OCCCC(C)=C(C)C)nc1C [Q.103]
≥ 50%: all assays above

CCN(C)/C=N/c1cc(Br)c(OC(C)c2cc(C)cc(C)c2)nc1C (stereo not drawn) [Q.203]
≥ 50%: all assays above

CCN(C)/C=N/c1cc(Br)c(OC2CCc3ccc(C(C)=O)cc3C2)nc1C (stereo not drawn) [Q.033]
≥ 50%: all assays above

CCN(C)/C=N/c1cc(Br)c(OCC#Cc2ccccc2)nc1C [Q.016]
≥ 50%: all assays above

CCN(C)/C=N/c1cc(Br)c(OC2Cc3ccc(Br)cc3C2)nc1C (stereo not drawn) [Q.196]
≥ 50%: all assays above

CCN(C)/C=N/c1cc(Br)c(OCc2ccccc2Br)nc1C [Q.302]
≥ 50%: all assays above

CCN(C)/C=N/c1cc(Br)c(OC2Cc3ccc(OCc4ccccc4)cc3C2)nc1C (stereo not drawn) [Q.168]
≥ 50%: all assays above

CCN(C)/C=N/c1cc(Br)c(OC2CCC3CCCCC3C2)nc1C (stereo not drawn) [Q.027]
≥ 50%: all assays above

CCN(C)/C=N/c1cc(Br)c(OCCCCc2ccc(Br)cc2)nc1C [Q.047]
≥ 50%: all assays above

CCN(C)/C=N/c1cc(Br)c(OCC2CCc3ccccc3C2)nc1C (stereo not drawn) [Q.224]
≥ 50%: all assays above

CCN(C)/C=N/c1cc(Br)c(OC2CCC(F)(F)CC2)nc1C [Q.375]
≥ 50%: all assays above

CCN(C)/C=N/c1cc(Br)c(OC(C)CCc2ccc(OC)cc2)nc1C (stereo not drawn) [Q.013]
≥ 50%: all assays above

CCN(C)/C=N/c1cc(Br)c(OC2Cc3ccc(OCc4ccns4)cc3C2)nc1C (stereo not drawn) [Q.144]
≥ 50%: all assays above

CCN(C)/C=N/c1cc(Br)c(OCC2CCCc3ccccc32)nc1C (stereo not drawn) [Q.226]
≥ 50%: all assays above

CCN(C)/C=N/c1cc(Br)c(OC2CCC(OC(=O)C(C)C)CC2)nc1C (stereo not drawn) [Q.211]
≥ 50%: all assays above

C#Cc1cc(/N=C/N(C)CC)c(C)nc1O[C@H]1CC[C@@H](C(C)C)CC1 [Q.250]
≥ 50%: all assays above

CCN(C)/C=N/c1cc(Br)c(OCC2CCCC(C#N)C2)nc1C (stereo not drawn) [Q.032]
≥ 50%: all assays above

CCc1cc(/N=C/N(C)CC)c(C)nc1O[C@H]1CC[C@@H](C(C)C)CC1 [Q.251]
≥ 50%: all assays above

CCc1cc(/N=C/N(C)CC)c(C)nc1OC(C)c1cc(F)cc(F)c1 (stereo not drawn) [Q.228]
≥ 50%: all assays above

CCN(C)/C=N/c1cc(C)c(OC(C)c2cc(F)cc(F)c2)nc1C (stereo not drawn) [Q.184]
≥ 50%: all assays above

CCc1ccccc1COc1nc(C)c(/N=C/N(C)CC)cc1Br [Q.285]
≥ 50%: all assays above

CCN(C)/C=N/c1cc(Br)c(OCCC2CC2)nc1C [Q.222]
≥ 50%: all assays above
